# Experimental data from article PMC12613848, “First in human phase 1 study of DT2216, a selective BCL-xL degrader, in patients with relapsed/refractory solid malignancies” (Journal of Hematology & Oncology, 2025).
# How the values were obtained:
# BCL-XL = tested on: BCL-XL; parameters: method as in PMID 31792461; conditions: MOLT-4 T-ALL xenografts, after a single dosing; cited from earlier work
# H146 cells (SCLC) = assay: In vitro IC90, H146 cells; format: cell-based; conditions: Homo sapiens, NCI-H146, DT2216 alone
# Description: (§1) Fig. 7 Mean Plasma concentration of DT2216 in 4 patients infused with DT2216 at 0.4 mg/kg over time against in vitro inhibitory concentration 90%(IC90) for various cell lines. SCLC – small cell lung cancer; OC- ovarian carcinoma; T-ALL – T cell acute lymphoblastic leukemia, CTCL – Cutaneous T cell lymphoma TEXT PRINTED IN THE PICTURE: DT2216: IC90 (≈ 1000 nM) for H146 cells (SCLC); IC90 (< 1000 nM) for OVCAR4 cells (OC); IC90 (≈ 500 nM) for MOLT-4 cells (T-ALL); IC90 (< 100 nM) for OVCAR4 cells (OC)* (*In combination with Carboplatin); IC90 (≈ 100 nM) for H146 cells (SCLC)** (**In combination with SN-38/irinotecan); IC90 (30 nM) for Myla cells (CTCL)
# Myla cells (CTCL) = assay: In vitro IC90, Myla cells; format: cell-based
# Description: as §1
compound,measurement,setting,value
Cc1ncsc1-c1ccc([C@H](C)NC(=O)[C@@H]2C[C@@H](O)CN2C(=O)[C@@H](NC(=O)CCCCCC(=O)N2CCN(CC[C@H](CSc3ccccc3)Nc3ccc(S(=O)(=O)NC(=O)c4ccc(N5CCN(CC6=C(c7ccc(Cl)cc7)CCC(C)(C)C6)CC5)cc4)cc3S(=O)(=O)C(F)(F)F)CC2)C(C)(C)C)cc1 [DT2216],duration of BCL-XL degradation,BCL-XL,approximately 2 weeks
same,IC90,H146 cells (SCLC),~1000 nM
same,IC90,Myla cells (CTCL),30 nM
